Assay results as given in ChEMBL document CHEMBL1201862, “PubChem BioAssay data set” (2004).
Calls of active or inactive are those of the source.

Legend:
[1] = target: Transitional endoplasmic reticulum ATPase (Homo sapiens, UniProt P55072, C522A); experiment: C522A mutant p97 ATPase inhibitors, dose response, counter-screen for p97 inhibitor project, biochemical, luminescence (AID 1544)
[2] = target: Transitional endoplasmic reticulum ATPase (Homo sapiens, UniProt P55072); experiment: p97 ATPase inhibitors, dose response, biochemical (AID 1534)
[3] = target: T1, Polyadenylate-binding protein 1 (Homo sapiens, UniProt P11940); experiment: MLLE domain peptide-binding blockers, IC50 – biochemical, fluorescence polarization, FITC-PAM2 peptide, dose response (AID 602259); assay type: functional; settings: read-out: IC50_Mean
[4] = target: T1, Polyadenylate-binding protein 1; experiment: MLLE binding blockers, Cy5 peptide tracer – biochemical, fluorescence polarization, Cy5-PAM2 peptide, secondary, miRNA deadenylation inhibitor project, dose response (AID 602260); assay type: functional; settings: read-out: IC50_Mean
[5] = A Cell Based Secondary Assay To Explore Cytotoxicity of Compounds that Sensitize Mycobacterium Tuberculosis to Beta-Lactam Antibiotics.; assay type: functional
[6] = target: Peroxisome proliferator-activated receptor gamma/Nuclear receptor coactivator 1 (Homo sapiens, UniProt P37231); assay type: functional;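 note: agonist potency as compounds enhance coactivator SRC-1 recruitment to PPARgamma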
[7] = target: Peroxisome proliferator-activated receptor gamma/Nuclear receptor coactivator 2 (Homo sapiens, UniProt P37231); assay type: functional;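 note: agonist potency for raising coactivator recruitment to the receptor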
[8] = target: Peroxisome proliferator-activated receptor gamma/Nuclear receptor coactivator 3 (Homo sapiens, UniProt P37231); assay type: functional;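 note: agonist potency for raising coactivator recruitment to the receptor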
[9] = target: Large T antigen (Simian virus 40, UniProt P03070); assay type: functional, Betapolyomavirus macacae;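 note: Confirmatory-stage PubChem screen for compounds that inhibit SV40 T antigen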
[10] = mitochondrial function rescue without frataxin homolog – Friedreich's ataxia, plus single-dose screen, dose response (AID 1465); assay type: functional;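 note: yeast depleted of Yfh1p frataxin homolog grown on glycerol needing respiration; WST-1 tetrazolium dye reduction as measure of cellular dehydrogenase metabolic activity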
[11] = system: BJ; experiment: cells; assay type: functional, cell-based; settings: Homo sapiens
[12] = Luminescence-based dose response cell-based high throughput screening assay for cytotoxic compounds using the IEC-6 intestinal epithelial cell line. [Related pubchem assays: 1858 (Summary AID.), 1825 (Counterscreen.), 1907 (Confirmation screen.)]; assay type: functional
[13] = luciferase reporter signal reduction – luminescence, H4-C neuroglioblastoma cells, dose response (AID 2458); assay type: functional, cell-based;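 note: H4 neuroglioblastoma cells stably carrying a luciferase reporter gene fusion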
[14] = luciferase reporter signal suppression in cells – H4 neuroglioma cells, luminescence, dose response (AID 1990); assay type: functional, cell-based
[15] = HEK-293T viability loss after treatment – luminescence, T-cell screen hits, cytotoxicity control for TCR NF-kB inhibitor project, dose response (AID 489026); assay type: functional, cell-based;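 note: cells exposed to compound about 14 hours before the viability readout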
[16] = Trypanosoma cruzi growth suppression in host cells – NIH3T3 host cells, beta-gal luminescence, confirmation (AID 2044); assay type: functional, cell-based;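 note: intracellular parasites grown in NIH/3T3 mouse fibroblasts as host cells; luminescent beta-galactosidase reporter signal from transgenic T. cruzi replicating inside host cells; inhibitors lower the luminescence signal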
[17] = system: BJ; experiment: BJ-TERT fibroblast viability loss – cell-based, RAS-independent, luminescence, dose response (AID 1933); assay type: functional; settings: Homo sapiens
[18] = alpha-synuclein stem-loop translation blockers – luminescence, H4 neuroglioblastoma cells, dose confirmation, confirmation (AID 2454); assay type: functional, cell-based;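 note: H4 neuroglioblastoma cells carrying an alpha-synuclein 5'UTR luciferase reporter; potency for inhibition of the luciferase signal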
[19] = cells
[20] = NIH3T3 cell viability loss – ATP luminescence, mouse fibroblasts, counter-screen, dose response (AID 2010); assay type: functional, cell-based;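 note: cells exposed to compound for about 90 hours before reading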
[21] = cells; assay type: functional, cell-based
[22] = alpha-synuclein stem-loop luciferase translation blockers – H4 neuroglioma cells, luminescence, confirmation (AID 1988); assay type: functional, cell-based
[23] = DRD fibroblast viability loss – cell-based, non-viral oncogenic, luminescence, dose response (AID 1934); assay type: functional; settings: Homo sapiens
[24] = target: T2, Protein Tat (Human immunodeficiency virus type 1 group M subtype B (isolate HXB2)(HIV-1), UniProt P04608); assay type: functional;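 note: tat binding to TAR RNA read out by fluorescence polarization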
T2 sequence (P04608 whole entry): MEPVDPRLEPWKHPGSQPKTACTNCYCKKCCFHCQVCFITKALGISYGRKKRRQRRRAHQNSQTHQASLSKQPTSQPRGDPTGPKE

[25] = target: NS3 (Hepatitis C virus, UniProt A3EZJ3); experiment: PubChem AID 2173; parameters: species or system Hepacivirus hominis
[26] = target: Induced myeloid leukemia cell differentiation protein Mcl-1 (Homo sapiens, UniProt Q07820); assay type: functional

T1 sequence (P11940 whole entry, the tested form may be a part): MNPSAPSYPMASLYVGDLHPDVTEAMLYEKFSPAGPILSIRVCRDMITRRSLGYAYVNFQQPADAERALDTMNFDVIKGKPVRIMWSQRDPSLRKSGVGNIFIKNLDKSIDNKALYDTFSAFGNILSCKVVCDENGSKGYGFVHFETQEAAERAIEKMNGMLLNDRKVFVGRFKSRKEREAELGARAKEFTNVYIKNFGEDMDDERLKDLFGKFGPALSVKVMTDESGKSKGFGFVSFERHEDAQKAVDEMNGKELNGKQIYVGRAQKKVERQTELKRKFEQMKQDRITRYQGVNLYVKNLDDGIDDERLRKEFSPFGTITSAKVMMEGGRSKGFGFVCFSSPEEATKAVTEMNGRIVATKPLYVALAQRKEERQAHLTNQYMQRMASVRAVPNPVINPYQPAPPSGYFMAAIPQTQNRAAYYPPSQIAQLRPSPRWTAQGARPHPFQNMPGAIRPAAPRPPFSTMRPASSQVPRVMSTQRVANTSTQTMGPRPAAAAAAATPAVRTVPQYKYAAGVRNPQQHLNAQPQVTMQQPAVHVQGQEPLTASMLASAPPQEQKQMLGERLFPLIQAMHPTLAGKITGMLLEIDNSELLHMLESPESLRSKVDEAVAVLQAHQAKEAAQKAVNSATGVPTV
Chain of Transitional endoplasmic reticulum ATPase (Homo sapiens, UniProt P55072) (P55072 whole entry, the tested form may be a part): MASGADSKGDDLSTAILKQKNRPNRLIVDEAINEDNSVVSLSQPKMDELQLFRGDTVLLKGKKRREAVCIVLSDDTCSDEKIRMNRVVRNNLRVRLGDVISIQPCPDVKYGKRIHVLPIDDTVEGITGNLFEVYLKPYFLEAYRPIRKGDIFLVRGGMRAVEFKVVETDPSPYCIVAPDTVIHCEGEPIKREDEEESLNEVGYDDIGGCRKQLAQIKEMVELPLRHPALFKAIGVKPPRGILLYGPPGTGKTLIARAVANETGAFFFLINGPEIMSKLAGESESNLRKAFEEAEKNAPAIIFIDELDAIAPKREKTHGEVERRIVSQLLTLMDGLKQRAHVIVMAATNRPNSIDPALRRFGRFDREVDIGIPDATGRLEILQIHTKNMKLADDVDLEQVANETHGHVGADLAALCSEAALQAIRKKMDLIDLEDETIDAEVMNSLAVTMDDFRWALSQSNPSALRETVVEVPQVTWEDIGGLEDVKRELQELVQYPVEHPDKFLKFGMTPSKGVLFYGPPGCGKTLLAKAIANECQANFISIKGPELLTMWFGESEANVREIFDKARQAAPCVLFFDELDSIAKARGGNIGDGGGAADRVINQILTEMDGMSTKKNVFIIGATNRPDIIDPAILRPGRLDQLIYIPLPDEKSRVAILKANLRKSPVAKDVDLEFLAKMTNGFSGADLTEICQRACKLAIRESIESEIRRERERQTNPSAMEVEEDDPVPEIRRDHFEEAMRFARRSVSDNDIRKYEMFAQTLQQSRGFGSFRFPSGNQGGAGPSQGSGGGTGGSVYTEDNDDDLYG
Chain of Transitional endoplasmic reticulum ATPase (Homo sapiens, UniProt P55072, C522A) (P55072 2-806 C522A limits assumed): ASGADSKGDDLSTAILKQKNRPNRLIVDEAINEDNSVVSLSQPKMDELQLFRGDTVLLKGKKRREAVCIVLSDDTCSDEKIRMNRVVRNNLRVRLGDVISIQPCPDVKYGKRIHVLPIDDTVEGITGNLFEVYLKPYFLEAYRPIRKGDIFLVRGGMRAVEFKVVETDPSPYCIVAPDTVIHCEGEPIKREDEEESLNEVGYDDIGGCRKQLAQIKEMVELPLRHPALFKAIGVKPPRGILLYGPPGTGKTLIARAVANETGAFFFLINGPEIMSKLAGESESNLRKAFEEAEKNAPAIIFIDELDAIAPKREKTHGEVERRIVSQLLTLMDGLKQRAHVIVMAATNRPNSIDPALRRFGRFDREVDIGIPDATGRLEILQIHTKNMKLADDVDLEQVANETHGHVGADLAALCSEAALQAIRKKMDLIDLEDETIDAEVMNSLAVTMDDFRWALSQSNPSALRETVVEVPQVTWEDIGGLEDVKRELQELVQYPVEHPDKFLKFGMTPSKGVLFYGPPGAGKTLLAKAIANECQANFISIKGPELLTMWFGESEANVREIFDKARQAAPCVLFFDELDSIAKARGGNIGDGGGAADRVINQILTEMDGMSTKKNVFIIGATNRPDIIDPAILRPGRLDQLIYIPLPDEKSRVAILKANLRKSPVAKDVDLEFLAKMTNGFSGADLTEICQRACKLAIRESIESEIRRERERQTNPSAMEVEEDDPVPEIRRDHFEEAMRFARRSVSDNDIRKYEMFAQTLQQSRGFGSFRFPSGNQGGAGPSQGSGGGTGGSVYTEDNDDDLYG
Chain of Peroxisome proliferator-activated receptor gamma/Nuclear receptor coactivator 1 (P37231 whole entry): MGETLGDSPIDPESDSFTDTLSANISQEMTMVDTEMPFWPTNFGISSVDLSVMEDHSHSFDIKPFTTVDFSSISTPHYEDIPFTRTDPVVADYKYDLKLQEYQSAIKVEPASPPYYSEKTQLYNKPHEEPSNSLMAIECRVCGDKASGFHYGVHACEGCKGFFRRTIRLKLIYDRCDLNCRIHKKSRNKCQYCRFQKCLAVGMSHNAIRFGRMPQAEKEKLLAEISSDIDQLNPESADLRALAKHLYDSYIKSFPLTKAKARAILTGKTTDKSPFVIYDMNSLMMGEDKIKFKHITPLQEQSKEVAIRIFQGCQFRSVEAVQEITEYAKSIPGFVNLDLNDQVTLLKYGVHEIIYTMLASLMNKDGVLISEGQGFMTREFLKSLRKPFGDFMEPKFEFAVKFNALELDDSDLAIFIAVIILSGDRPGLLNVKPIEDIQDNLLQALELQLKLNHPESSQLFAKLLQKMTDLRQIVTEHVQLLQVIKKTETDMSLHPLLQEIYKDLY
Chain of Peroxisome proliferator-activated receptor gamma/Nuclear receptor coactivator 1 (Q15788 whole entry, further chain): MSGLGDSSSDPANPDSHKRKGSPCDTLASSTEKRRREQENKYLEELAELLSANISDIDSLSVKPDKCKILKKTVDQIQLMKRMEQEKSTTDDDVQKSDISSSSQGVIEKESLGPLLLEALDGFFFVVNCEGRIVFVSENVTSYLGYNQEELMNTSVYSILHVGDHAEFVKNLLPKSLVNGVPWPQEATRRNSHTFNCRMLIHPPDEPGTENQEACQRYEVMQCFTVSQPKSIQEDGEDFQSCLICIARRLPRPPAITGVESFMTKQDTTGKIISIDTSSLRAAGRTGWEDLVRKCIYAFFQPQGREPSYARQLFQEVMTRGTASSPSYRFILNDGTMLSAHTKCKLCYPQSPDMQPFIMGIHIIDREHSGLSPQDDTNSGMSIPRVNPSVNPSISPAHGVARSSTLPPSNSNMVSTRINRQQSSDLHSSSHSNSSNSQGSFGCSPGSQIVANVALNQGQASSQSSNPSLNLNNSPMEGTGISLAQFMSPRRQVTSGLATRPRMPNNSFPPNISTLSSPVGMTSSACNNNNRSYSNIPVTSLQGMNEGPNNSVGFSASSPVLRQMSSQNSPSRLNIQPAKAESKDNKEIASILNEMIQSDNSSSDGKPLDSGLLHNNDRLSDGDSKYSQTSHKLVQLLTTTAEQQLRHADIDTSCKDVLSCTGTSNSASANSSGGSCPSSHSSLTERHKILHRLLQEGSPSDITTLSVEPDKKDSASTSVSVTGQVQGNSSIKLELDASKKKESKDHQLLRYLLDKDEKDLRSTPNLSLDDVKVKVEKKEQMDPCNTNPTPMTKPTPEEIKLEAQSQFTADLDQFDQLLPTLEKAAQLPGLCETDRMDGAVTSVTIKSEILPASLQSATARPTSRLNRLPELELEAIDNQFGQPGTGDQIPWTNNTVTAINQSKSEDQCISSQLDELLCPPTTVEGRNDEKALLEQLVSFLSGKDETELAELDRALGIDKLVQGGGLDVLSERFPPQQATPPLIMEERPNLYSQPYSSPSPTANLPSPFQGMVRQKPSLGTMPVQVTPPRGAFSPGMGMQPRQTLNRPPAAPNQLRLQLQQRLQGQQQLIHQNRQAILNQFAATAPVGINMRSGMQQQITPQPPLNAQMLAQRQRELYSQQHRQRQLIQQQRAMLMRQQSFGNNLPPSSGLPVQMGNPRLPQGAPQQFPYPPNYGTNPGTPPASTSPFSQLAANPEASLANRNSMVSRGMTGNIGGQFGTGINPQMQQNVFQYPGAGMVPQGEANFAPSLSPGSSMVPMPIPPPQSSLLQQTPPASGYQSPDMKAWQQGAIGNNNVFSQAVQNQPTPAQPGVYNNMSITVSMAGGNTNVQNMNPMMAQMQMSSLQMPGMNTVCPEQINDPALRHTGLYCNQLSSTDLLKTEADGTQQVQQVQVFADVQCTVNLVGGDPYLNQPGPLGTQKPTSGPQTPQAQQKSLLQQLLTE
Chain of Large T antigen (P03070 whole entry): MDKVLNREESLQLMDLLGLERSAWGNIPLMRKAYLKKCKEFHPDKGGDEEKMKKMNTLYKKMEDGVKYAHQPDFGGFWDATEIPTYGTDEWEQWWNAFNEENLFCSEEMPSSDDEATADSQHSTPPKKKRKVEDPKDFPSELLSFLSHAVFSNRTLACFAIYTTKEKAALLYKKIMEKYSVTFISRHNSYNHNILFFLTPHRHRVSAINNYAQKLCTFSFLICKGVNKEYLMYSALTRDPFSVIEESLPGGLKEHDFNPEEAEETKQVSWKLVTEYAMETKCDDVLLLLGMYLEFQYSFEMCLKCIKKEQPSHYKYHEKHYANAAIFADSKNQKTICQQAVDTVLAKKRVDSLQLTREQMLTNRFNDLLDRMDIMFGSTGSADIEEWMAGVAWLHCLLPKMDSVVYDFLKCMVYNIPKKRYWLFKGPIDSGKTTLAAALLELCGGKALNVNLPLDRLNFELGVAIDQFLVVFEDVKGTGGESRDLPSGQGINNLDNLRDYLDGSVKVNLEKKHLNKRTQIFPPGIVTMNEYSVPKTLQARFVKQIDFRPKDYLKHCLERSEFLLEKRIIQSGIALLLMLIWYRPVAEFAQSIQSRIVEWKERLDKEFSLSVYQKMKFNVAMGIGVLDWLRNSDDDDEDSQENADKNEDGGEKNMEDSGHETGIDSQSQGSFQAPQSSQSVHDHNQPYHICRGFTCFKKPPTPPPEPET

Cc1ccccc1C(=O)Nc1nc2c(C)csc2c(=O)s1
IC50 [1]: > 50 µM (not active)
IC50 [2]: > 50 µM (not active)

Cc1noc(/C=C/Nc2ccc(F)cc2F)c1[N+](=O)[O-]
IC50 [3]: 27.5 µM (inactive)
IC50 [4]: 35.7 µM (inactive)
CC50 [5]: 39 µM (active)

Nc1nc2ccc(N3CCOCC3)cc2s1
EC50 [6]: > 79.4 µM (not active)
EC50 [7]: > 79.4 µM (not active)
EC50 [8]: > 79.4 µM (not active)
IC50 [9]: 7.66 µM (active)

Sc1nnc(CSCc2ccc(Cl)cc2Cl)n1-c1ccccc1
EC50 [10]: > 100 µM (active)

C/C=C(\C)C(=O)N[C@@H](c1ccccc1)[C@@H](O)C(=O)O[C@H]1C[C@@]2(O)[C@@H](OC(=O)c3ccccc3)C3[C@](C)(C(=O)[C@H](OC(C)=O)C(=C1C)C2(C)C)[C@H](O)C[C@H]1OC[C@@]31OC(C)=O (stereo partly specified)
EC50 [11]: > 150 µM (not active)
IC50 [12]: 0.101 µM (active)
EC50 [13]: 0.092 µM (active)
EC50 [14]: 1.71 µM (active)
IC50 [15]: > 80 µM (inactive)
EC50 [16]: < 0.1 µM (active)
EC50 [17]: 0.189 µM (active)
EC50 [18]: 0.11 µM (active)
EC50 [19]: 0.011 µM (active)
EC50 [20]: 0.171 µM (active)
EC50 [21]: 0.19 µM (active)
EC50 [22]: < 0.1 µM (active)
EC50 [23]: < 0.12 µM (active)

O=C(c1ccc2nc(-c3ccco3)c(-c3ccco3)nc2c1)N1CCN(c2ncccn2)CC1
IC50 [24]: 7.28 µM (inconclusive)
IC50 [25]: 11.5 µM (not active)
IC50 [26]: 7.82 µM (active)
